These results are taken from patent publication US11241440B2, “Dihydrooxadiazine compounds for treating infections and cancer” (VALORALIA I MÁS D, SL, priority 2016, dated 2022).

The test system of the experiment is M. chelonae. Nature of the experiment: Kirby-Bauer disk diffusion susceptibility test. As to conditions: M. chelonae strain 870, isolation year 2011. Format: cell-based. For orientation: In agar diffusion tests the substance spreads into inoculated agar from a disc or well.

Penicillin: the “Characteristics of strains: susceptibility or resistance” value was “R”.
